Laboratory results from patent publication US10597388B2, “Pyridazinone herbicides” (FMC CORPORATION, priority 2014, dated 2020).

What was measured:
Format in all cases: in vivo
[1] = system: foxtail, giant (giant foxtail, Setaria faberii); experiment: Test C greenhouse herbicide test, pre- and postemergence
Outline: (§1)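 Two application timings: at sowing into a soil/sand blend, and on 2–18 cm seedlings in peat-vermiculite potting mix. A non-phytotoxic, surfactant-containing solvent carried the compounds. Plants were compared with controls and rated visually on 0–100 after 13–15 d.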

[2] = system: oilseed rape (Brassica napus); experiment: as above
Outline: as §1

[3] = system: galium (catchweed bedstraw, Galium aparine); experiment: as above
Outline: as §1

[4] = system: sedge, umbrella (small-flower umbrella sedge, Cyperus difformis); experiment: Test B flooded paddy test; conditions: 250 g ai/ha, Flood; visual rating on scale of 0 to 100 where 0 is no effect and 100 is complete control; 13 to 15 d after treatment
Outline: (§2)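 Plants at the 2-leaf stage were flooded to 3 cm above soil, and test compounds were applied directly into the paddy water, which was held at that depth throughout. After 13 to 15 d in a greenhouse, injury was rated visually against untreated controls on a 0–100 scale (0 no effect, 100 complete control).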

[5] = system: ducksalad (Heteranthera limosa); experiment: Test B flooded paddy test; conditions: 250 g ai/ha, Flood; visual rating on scale of 0 to 100 where 0 is no effect and 100 is complete control; 13 to 15 d after treatment
Outline: as §2

rice (Oryza sativa) = experiment: Test B flooded paddy test; conditions: 250 g ai/ha, Flood; visual rating on scale of 0 to 100 where 0 is no effect and 100 is complete control; 13 to 15 d after treatment
Outline: as §2

[6] = system: barnyardgrass (Echinochloa crus-galli); experiment: Test B flooded paddy test; conditions: 250 g ai/ha, Flood; visual rating on scale of 0 to 100 where 0 is no effect and 100 is complete control; 13 to 15 d after treatment
Outline: as §2

[7] = system: ryegrass, Italian (Italian ryegrass, Lolium multiflorum); experiment: Test A greenhouse herbicide test, pre- and postemergence
Outline: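 Seeds sown in loam–sand blend got a preemergence directed soil spray of compound in non-phytotoxic solvent with surfactant. Postemergence treatment was given at 2–10 cm, one- to two-leaf stage. After ~10 d in greenhouse, injury was rated visually vs untreated controls, 0 (no effect) to 100 (complete control).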

[8] = system: blackgrass (Alopecurus myosuroides); experiment: Test A greenhouse herbicide test, postemergence; conditions: for Blackgrass plant response rating: 0 to 100 scale, 0 is no effect, 100 is complete control
Outline: (§3)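 Greenhouse postemergence test: formulated chemicals sprayed on one- to two-leaf plants (2 to 10 cm), grown in loam soil blended with sand. Injury assessed visually about 10 d later against untreated controls, scored 0 (no effect) to 100 (complete control).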

[9] = system: galium (catchweed bedstraw, Galium aparine); experiment: Test A greenhouse herbicide test, postemergence; conditions: for Galium plant response rating: 0 to 100 scale, 0 is no effect, 100 is complete control
Outline: as §3

[10] = Postemergence, 31 g ai/ha, 0 to 100 scale (0 no effect, 100 complete control)
[11] = Postemergence, 125 g ai/ha, scale 0 to 100, 0 is no effect, 100 is complete control
[12] = Postemergence, 250 g ai/ha, scale 0 to 100, 0 no effect, 100 complete control, 13 to 15 d
[13] = Preemergence, 31 g ai/ha, scale 0 to 100, 0 is no effect, 100 is complete control
[14] = Preemergence, 62 g ai/ha, scale 0 to 100, 0 is no effect, 100 is complete control
[15] = Preemergence, 125 g ai/ha, scale 0 to 100, 0 is no effect, 100 is complete control
[16] = Preemergence, 250 g ai/ha, scale 0 to 100, 0 no effect, 100 complete control
[17] = postemergence, 62 g ai/ha, scale 0 to 100, 0 no effect, 100 complete control
[18] = Postemergence, 500 g ai/ha, 0 to 100 scale, 0 is no effect, 100 is complete control
[19] = Preemergence, 125 g ai/ha, 0 to 100 scale where 0 is no effect and 100 is complete control
[20] = Preemergence, 500 g ai/ha, 0 to 100 scale, 0 no effect, 100 complete control
[21] = 125 g ai/ha, visual rating after approx. 10 d, 0 to 100 scale (0 no effect, 100 complete control)
[22] = Postemergence, 125 g ai/ha, 0 to 100 scale where 0 is no effect and 100 is complete control
[23] = 125 g ai/ha, 0 to 100 scale where 0 is no effect and 100 is complete control
[24] = Preemergence, 500 g ai/ha, 0 to 100 scale where 0 is no effect and 100 is complete control
[25] = Postemergence, 31 g ai/ha, scale 0 to 100 (0 no effect, 100 complete control)
[26] = Postemergence, 62 g ai/ha, 0 to 100 scale (0 no effect, 100 complete control)
[27] = postemergence, 125 g ai/ha, scale 0 to 100, 0 no effect, 100 complete control
[28] = 500 g ai/ha, visual rating after approx. 10 d, 0 to 100 scale (0 no effect, 100 complete control)

Cc1cc(C)c2ccccc2c1-c1c(O)c(C)nn(C)c1=O [Compound 21]
Foxtail, Giant plant response rating [1, 10]: 55
Plant response rating, Foxtail, Giant [1, 11]: 90
Plant response rating, Foxtail, Giant [1, 12]: 95
Plant response rating, Foxtail, Giant [1, 13]: 100
Plant response rating, Foxtail, Giant [1, 14]: 100
Plant response rating, Foxtail, Giant [1, 15]: 100
Foxtail, Giant plant response rating [1, 16]: 100
Foxtail, Giant plant response rating [1, 17]: 80
Oilseed Rape plant response rating [2, 10]: 65
Plant response rating, Oilseed Rape [2, 11]: 100
Plant response rating, Oilseed Rape [2, 12]: 100
Plant response rating, Oilseed Rape [2, 13]: 90
Plant response rating, Oilseed Rape [2, 14]: 100
Plant response rating, Oilseed Rape [2, 15]: 100
Oilseed Rape plant response rating [2, 16]: 100
Oilseed Rape plant response rating [2, 17]: 80
Galium plant response rating [3, 10]: 98
Plant response rating, Galium [3, 11]: 100
Plant response rating, Galium [3, 12]: 100
Plant response rating, Galium [3, 13]: 98
Plant response rating, Galium [3, 14]: 98
Plant response rating, Galium [3, 15]: 98
Galium plant response rating [3, 16]: 100
Galium plant response rating [3, 17]: 100
Plant response rating, Sedge, Umbrella [4]: 65
Plant response rating, Ducksalad [5]: 0
Plant response rating, Rice (rice (Oryza sativa)): 55
Plant response rating, Barnyardgrass [6]: 70
Plant response rating, Ryegrass, Italian ([7]; Postemergence, 125 g ai/ha, visual rating after approx. 10 d, 0 to 100 scale (0 no effect, 100 complete control)): 100
Ryegrass, Italian plant response rating [7, 18]: 100
Ryegrass, Italian plant response rating [7, 19]: 100
Plant response rating, Ryegrass, Italian [7, 20]: 100
Plant response rating, Blackgrass [8, 21]: 90
Blackgrass plant response rating ([8]; 500 g ai/ha): 90
Plant response rating, Galium [9, 21]: 100
Galium plant response rating ([9]; 500 g ai/ha): 100

Cc1nn(C)c(=O)c(-c2ccc(F)c3ccccc23)c1O [Compound 41]
Foxtail, Giant plant response rating [1, 10]: 15
Plant response rating, Foxtail, Giant [1, 11]: 30
Plant response rating, Foxtail, Giant [1, 12]: 65
Plant response rating, Foxtail, Giant [1, 13]: 45
Plant response rating, Foxtail, Giant [1, 14]: 80
Plant response rating, Foxtail, Giant [1, 15]: 85
Foxtail, Giant plant response rating [1, 16]: 85
Foxtail, Giant plant response rating [1, 17]: 15
Oilseed Rape plant response rating [2, 10]: 0
Plant response rating, Oilseed Rape [2, 11]: 5
Plant response rating, Oilseed Rape [2, 12]: 0
Plant response rating, Oilseed Rape [2, 13]: 5
Plant response rating, Oilseed Rape [2, 14]: 50
Plant response rating, Oilseed Rape [2, 15]: 40
Oilseed Rape plant response rating [2, 16]: 100
Oilseed Rape plant response rating [2, 17]: 0
Galium plant response rating [3, 10]: 100
Plant response rating, Galium [3, 11]: 100
Plant response rating, Galium [3, 12]: 100
Plant response rating, Galium [3, 13]: 90
Plant response rating, Galium [3, 14]: 100
Plant response rating, Galium [3, 15]: 98
Galium plant response rating [3, 16]: 98
Galium plant response rating [3, 17]: 100
Plant response rating, Sedge, Umbrella [4]: 40
Plant response rating, Ducksalad [5]: 40
Plant response rating, Rice (rice (Oryza sativa)): 0
Plant response rating, Barnyardgrass [6]: 30
Plant response rating, Ryegrass, Italian [7, 22]: 100
Ryegrass, Italian plant response rating [7, 18]: 100
Ryegrass, Italian plant response rating [7, 19]: 100
Plant response rating, Ryegrass, Italian [7, 20]: 100
Plant response rating, Blackgrass [8, 23]: 70
Blackgrass plant response rating ([8]; 500 g ai/ha): 90
Plant response rating, Galium [9, 23]: 80
Galium plant response rating ([9]; 500 g ai/ha): 100

Cc1sc2ccccc2c1-c1c(O)c(Cl)nn(C)c1=O [Compound 89]
Plant response rating, Foxtail, Giant [1, 11]: 20
Plant response rating, Foxtail, Giant [1, 12]: 30
Plant response rating, Foxtail, Giant [1, 13]: 10
Plant response rating, Foxtail, Giant [1, 14]: 60
Plant response rating, Foxtail, Giant [1, 15]: 65
Foxtail, Giant plant response rating [1, 16]: 75
Foxtail, Giant plant response rating [1, 17]: 10
Plant response rating, Oilseed Rape [2, 11]: 0
Plant response rating, Oilseed Rape [2, 12]: 0
Plant response rating, Oilseed Rape [2, 13]: 0
Plant response rating, Oilseed Rape [2, 14]: 0
Plant response rating, Oilseed Rape [2, 15]: 30
Oilseed Rape plant response rating [2, 16]: 90
Oilseed Rape plant response rating [2, 17]: 0
Plant response rating, Galium [3, 11]: 95
Plant response rating, Galium [3, 12]: 95
Plant response rating, Galium [3, 13]: 95
Plant response rating, Galium [3, 14]: 98
Plant response rating, Galium [3, 15]: 98
Galium plant response rating [3, 16]: 98
Galium plant response rating [3, 17]: 95
Plant response rating, Sedge, Umbrella [4]: 40
Plant response rating, Ducksalad [5]: 65
Plant response rating, Rice (rice (Oryza sativa)): 0
Plant response rating, Barnyardgrass [6]: 0
Plant response rating, Ryegrass, Italian [7, 22]: 80
Ryegrass, Italian plant response rating [7, 18]: 90
Ryegrass, Italian plant response rating [7, 19]: 80
Plant response rating, Ryegrass, Italian [7, 24]: 90
Plant response rating, Blackgrass [8, 23]: 30
Blackgrass plant response rating ([8]; 500 g ai/ha): 60
Plant response rating, Galium [9, 23]: 90
Galium plant response rating ([9]; 500 g ai/ha): 90

COC(=O)Oc1c(C)nn(C)c(=O)c1-c1ccc(Br)c2ccccc12 [Compound 145]
Plant response rating, Foxtail, Giant [1, 25]: 20
Foxtail, Giant plant response rating [1, 26]: 25
Plant response rating, Foxtail, Giant [1, 12]: 55
Plant response rating, Foxtail, Giant [1, 13]: 35
Plant response rating, Foxtail, Giant [1, 14]: 60
Plant response rating, Foxtail, Giant [1, 15]: 75
Foxtail, Giant plant response rating [1, 16]: 95
Foxtail, Giant plant response rating [1, 27]: 25
Plant response rating, Oilseed Rape [2, 25]: 98
Oilseed Rape plant response rating [2, 26]: 98
Plant response rating, Oilseed Rape [2, 12]: 90
Plant response rating, Oilseed Rape [2, 13]: 5
Plant response rating, Oilseed Rape [2, 14]: 90
Plant response rating, Oilseed Rape [2, 15]: 90
Oilseed Rape plant response rating [2, 16]: 98
Oilseed Rape plant response rating [2, 27]: 95
Plant response rating, Galium [3, 25]: 90
Galium plant response rating [3, 26]: 95
Plant response rating, Galium [3, 12]: 100
Plant response rating, Galium [3, 13]: 90
Plant response rating, Galium [3, 14]: 98
Plant response rating, Galium [3, 15]: 100
Galium plant response rating [3, 16]: 98
Galium plant response rating [3, 27]: 98
Plant response rating, Sedge, Umbrella [4]: 0
Plant response rating, Ducksalad [5]: 0
Plant response rating, Rice (rice (Oryza sativa)): 0
Plant response rating, Barnyardgrass [6]: 0
Plant response rating, Ryegrass, Italian [7, 22]: 100
Plant response rating, Ryegrass, Italian ([7]; Postemergence, 500 g ai/ha, visual rating after approx. 10 d, 0 to 100 scale (0 no effect, 100 complete control)): 100
Plant response rating, Ryegrass, Italian [7, 24]: 100
Plant response rating, Blackgrass [8, 23]: 40
Plant response rating, Blackgrass [8, 28]: 80
Plant response rating, Galium [9, 23]: 100
Plant response rating, Galium [9, 28]: 100
